# Reference: US20190030036A1, “PHOSPHODIESTERASE INHIBITOR TREATMENT” (Cyrano Therapeutics, Inc., priority 2013, published 2019)
# Marks after values point to notes of the source that are not given here.
# System: patients with hyposmia
# Assay: Smell function (DT, RT, ME, H) by forced-choice, three-stimuli, stepwise-staircase technique with four odors; open trial of oral theophylline
# Format: in vivo, human
# From the text: Patients initially reported their sensory dysfunction as either loss of taste (e.g., flavor) and/or smell function. This subjective response was documented by objective psychophysical measurements of olfactory function administered to each patient by use of a forced-choice, three-stimuli, stepwise-staircase technique in a fixed, controlled design (1, 53). Efficacy of this technique and results of testing were previously documented in a double-blind clinical trial (53). Four odors were used; they were pyridine (dead-fish odor), nitrobenzene (bitter-almond odor), thiophene (petroleum-like odor) and amyl acetate (banana-oil odor). Detection thresholds (DT), recognition thresholds (RT) and magnitude estimation (ME) values for each odor were determined as previously described (1, 53). Thresholds were converted into bottle units (BU) as previously described (53) and results reported as M±SEM of correct responses for each odor in each treatment group; ME was reported in % and results calculated to obtain M±SEM for each treatment group for all correct responses using data for the four highest odor concentrations presented (from 10^−2M—an absolute odor concentration).
# In addition, each patient graded the hedonic (H) value of each odor presented for these same odor concentrations (from 10^−2M—an absolute odor concentration using a −100−0−+100 scale). […] Results were obtained by calculating the arithmetical sum of each correct recognition response for each odor with respect to its pleasantness, unpleasantness or neutrality. Arithmetic M±SEM were obtained for each treatment group for each odor presented.
# After determination of hyposmia, patients were treated in an open label, fixed design, controlled open trial. Patients were given an oral extended release theophylline in divided daily doses taken in the middle of breakfast and lunch. All patients were initially given 200 mg of theophylline; changes in this dose were made based upon subjective responses to therapy. If at a subsequent return visit, patients reported ≥5% subjective improvement in overall smell function, they continued on this same dose of theophylline and were reevaluated after four to six months of continued treatment. Results from any subsequent return from these improved patients were not included in any subsequent data report. All subsequent comparisons between treated and untreated patients were made only between those patients continuing in the study compared to their own measurements obtained in the untreated state. If patients reported <5% subjective improvement, their theophylline dose was increased by 200 mg daily and they were scheduled for retesting at the study site after two to four months at this new dosage. For patients that reported <5% improvement, this sequence continued until patients reached 800 mg of theophylline, at which time the study was considered completed.
# Patients returned for reevaluation after two to four months of treatment. Measurements of blood serum theophylline were measured by a fluorescence polarization assay (Abbott, Chicago, Ill.). At this time, subjective changes in smell function were measured independently (compared to patient's memory of previous normal smell function monitored by use of the patients' daily measurements) using the scale from −100−0-+100 previously described. After independently recording their subjective responses, smell function was measured for all four odors with DT, RT, ME and H determined without recourse to prior measurements.
# Since data for all measurements from each patient group (local or distant) on each dose level were combined mean and SEM for each measurement (DT, RT, ME, H) of smell function for each treatment group were calculated on this basis. Differences in measurements between before treatment and each treatment level were calculated and significance of differences estimated using Student t tests (values p<0.05 considered significant). […]
# [1] = pyridine, oral theophylline 800 mg, Type II hyposmia (16)
# [2] = thiophene, oral theophylline 200 mg
# [3] = thiophene, oral theophylline 200 mg daily, all patients (199)
# [4] = thiophene, oral theophylline 200 mg, Type I hyposmia (57)
# [5] = thiophene, oral theophylline 200 mg, Type II hyposmia (138)
# [6] = thiophene, oral theophylline 200 mg, Type III hyposmia (4)
# [7] = thiophene, oral theophylline 400 mg
# [8] = thiophene, oral theophylline 400 mg daily, all patients (120)
# [9] = thiophene, oral theophylline 400 mg, Type I hyposmia (33)
# [10] = thiophene, oral theophylline 400 mg, Type II hyposmia (85)
# [11] = thiophene, oral theophylline 400 mg, Type III hyposmia (2)
# [12] = thiophene, oral theophylline 600 mg daily, all patients (160)
# [13] = thiophene, oral theophylline 600 mg, Type I hyposmia (51)
# [14] = thiophene, oral theophylline 600 mg, Type II hyposmia (105)
# [15] = thiophene, oral theophylline 600 mg, Type III hyposmia (4)
# [16] = thiophene, oral theophylline 800 mg daily, all patients (28)
# [17] = thiophene, oral theophylline 800 mg, Type I hyposmia (12)
# [18] = thiophene, oral theophylline 800 mg, Type II hyposmia (16)
compound,measurement,setting,value
Cn1c(=O)c2[nH]cnc2n(C)c1=O [theophylline],"H, hedonic value",[1],−31 ± 9^ %
same,"ME, magnitude estimation",[1],43 ± 5^c %
same,"RT, recognition threshold",[1],7.1 ± 0.7^a BU
same,decrease of H values,[2],2%
same,increase of ME values,[2],5%
same,"DT, detection threshold",[3],7.5 ± 0.2^c BU
same,"H, hedonic estimation",[3],−15 ± 2^d %
same,"ME, magnitude estimation",[3],21 ± 2 ^ %
same,"RT, recognition threshold",[3],9.1 ± 0.2^c BU
same,"DT, detection threshold",[4],10.1 ± 0.3^d BU
same,"H, hedonic value",[4],−3 ± 2^a %
same,"ME, magnitude estimation",[4],6 ± 2^a %
same,"RT, recognition threshold",[4],11.4 ± 0.2^ BU
same,"DT, detection threshold",[5],6.5 ± 0.3^ BU
same,"H, hedonic value",[5],−19 ± 2^ %
same,"ME, magnitude estimation",[5],27 ± 2^ %
same,"RT, recognition threshold",[5],8.2 ± 0.3^a BU
same,"DT, detection threshold",[6],3.2 ± 0.8 BU
same,"H, hedonic value",[6],−40 ± 18%
same,"ME, magnitude estimation",[6],47 ± 15%
same,"RT, recognition threshold",[6],3.8 ± 0.6 BU
same,ME increases,[7],12%
same,increases in H values,[7],7%
same,"DT, detection threshold",[8],6.8 ± 0.4^c BU
same,"H, hedonic estimation",[8],−19 ± 2^d %
same,"ME, magnitude estimation",[8],26 ± 2^c %
same,"RT, recognition threshold",[8],8.4 ± 0.3^a BU
same,"DT, detection threshold",[9],9.8 ± 0.5^a BU
same,"H, hedonic value",[9],−5 ± 2^a %
same,"ME, magnitude estimation",[9],7 ± 2^a %
same,"RT, recognition threshold",[9],10.8 ± 0.4^ BU
same,"DT, detection threshold",[10],5.7 ± 0.4^ BU
same,"H, hedonic value",[10],−23 ± 3^ %
same,"ME, magnitude estimation",[10],31 ± 3^ %
same,"RT, recognition threshold",[10],7.6 ± 0.4^a BU
same,"DT, detection threshold",[11],1 BU
same,"H, hedonic value",[11],−99%
same,"ME, magnitude estimation",[11],99%
same,"RT, recognition threshold",[11],1 BU
same,"DT, detection threshold",[12],7.1 ± 0.3^a BU
same,"H, hedonic estimation",[12],−14 ± 2 ^ %
same,"ME, magnitude estimation",[12],21 ± 2^d %
same,"RT, recognition threshold",[12],9.0 ± 0.3^c BU
same,"DT, detection threshold",[13],9.4 ± 0.4^a BU
same,"H, hedonic value",[13],−3 ± 2^a %
same,"ME, magnitude estimation",[13],7 ± 2^a %
same,"RT, recognition threshold",[13],10.9 ± 0.3^d BU
same,"DT, detection threshold",[14],6.1 ± 0.3^a BU
same,"H, hedonic value",[14],−20 ± 2^ %
same,"ME, magnitude estimation",[14],27 ± 2^ %
same,"RT, recognition threshold",[14],8.1 ± 0.3^a BU
same,"DT, detection threshold",[15],2.0 ± 1.0 BU
same,"H, hedonic value",[15],−35 ± 24%
same,"ME, magnitude estimation",[15],42 ± 20%
same,"RT, recognition threshold",[15],3.8 ± 0.9 BU
same,"DT, detection threshold",[16],7.2 ± 0.7 BU
same,"H, hedonic estimation",[16],−15 ± 4%
same,"ME, magnitude estimation",[16],20 ± 4%
same,"RT, recognition threshold",[16],9.6 ± 0.6 BU
same,"DT, detection threshold",[17],10.0 ± 0.7^ BU
same,"H, hedonic value",[17],−4 ± 2^a %
same,"ME, magnitude estimation",[17],4 ± 2^a %
same,"RT, recognition threshold",[17],11.6 ± 0.2^ BU
same,"DT, detection threshold",[18],4.9 ± 0.7^a BU
same,"H, hedonic value",[18],−24 ± 8^ %
same,"ME, magnitude estimation",[18],33 ± 6^ %
same,"RT, recognition threshold",[18],8.0 ± 1.0^ BU
